Test results reported in EP2982368A1, “Small molecule compounds displacing focal adhesion core components” (Universität Konstanz, priority 2014, dated 2016).
pIC50: −log10 of the molar value.

Tests used:
FAK = target: T1, FAK (Mus musculus, UniProt P34152); assay: GFP-FAK displacement from focal adhesions (fluorescence imaging, ImageJ quantification of focal adhesions per cell); type: cell-based; details: for pIC50: GFP-FAK MEFs on fibronectin, 1 h incubation, focal adhesions per cell, Hill slope model, read-out: IC50 (displacement of FAK from focal adhesions, cellular IC50); for time to FAK displacement, vinculin localization not disturbed: GFP-FAK MEFs stably expressing mKate-vinculin, 40 µM; for time to FAK displacement from focal adhesions: 20 µM, time series; for concentration sufficient to induce FAK displacement: increasing concentrations
T1 construct: expressed in transfected cells; host or cells: FAK-/- (p53-/-) mouse embryonic fibroblasts stably re-expressing GFP-FAK
Source text: Ectopic expression of FRNK as a dominant negative inhibitor of FAK effectively blocks FAK dependent events. This type of interference seems to be used physiologically for regulation of FAK function in certain cell types (Taylor et al. 2001). However, there is currently no possibility to instantaneously interfere with FAK localization. Therefore, the inventors sought to identify small molecules to disrupt FAK mediated protein-protein-interactions. Towards this line they set-up a High Content Screen based on FAK-/- MEFs re-expressing GFP-FAK to visualize FAK localization at focal adhesions. Cells were seeded on fibronectin and incubated to allow adherence and spreading. Prior to fixation, cell nuclei were Hoechst stained. FAK containing focal adhesions and cells per field of view were quantified using a custom-made macro for ImageJ. The macro identifies focal adhesions due to local maxima of fluorescence intensity in the GFP-channel. Cells were counted in the Hoechst channel based on a binary image. Closely connected cell nuclei were separated by a watershed algorithm. […] Next, as a proof of principle GFP-FAK MEFs were transduced to express mKate2-tagged FRNK. mKate2-FRNK localizes to focal adhesions, where it efficiently displaces GFP-FAK (Figure 2). […] Consequently, the software can correctly identify FAK displacement from focal adhesions.
In order to find small molecules which induce the specific delocalization of FAK, two commercial compound libraries with more than 17.000 entries were screened. GFP-FAK MEFs were seeded on fibronectin in multi-well plates and compounds were transferred to the cells with a robot to a final concentration of 40 µM. Cells were incubated for 4 h and nuclei were Hoechst stained prior to fixation. Cells were imaged with an automated microscope and data were analyzed with the ImageJ macro. In the first screening round the macro identified 108 hits, which were curated by visual inspection to exclude instances of dramatic cell rounding and/or detachment. […] To validate these primary hits the inventors transduced the GFP-FAK MEFs to stably express mKate-vinculin, which serves as a FAK-independent marker of focal adhesions and facilitates indication of specific FAK displacement. On a first approach two compounds were identified, which induced FAK displacement within less than 1 h, while vinculin localization was not disturbed (Figure 4). […] Strikingly, they share distinct structural characteristics since both compounds have a NO2-group and an isosteric halogen-substituted phenyl- or thiophene-group (Figure 5).
In order to investigate the kinetics of FAK displacement at focal adhesions a time series was performed. GFP-FAK MEFs were treated with 20 µM of Mb31 or Mb36 and fixed after different time points. […] Mb36 kinetic was slightly slower with FAK delocalization after 20 min. In addition, GFP-FAK MEFs were treated with increasing concentrations of Mb31 or Mb36 to determine the minimum concentration required to interfere with FAK localization. Untreated or solvent (DMSO) treated cells show the expected localization of FAK at focal adhesions. […] Already 2 µM of Mb31 were sufficient to induce FAK displacement. […] Due to the faster kinetic and lower IC50 compared to Mb36 further studies were mainly performed using Mb31. […] In contrast, vinculin localization and the focal adhesion localization of talin, α-actinin, and zyxin is not disturbed (Figure 5 and Table 1).
About 17.000 compounds (40 µM working concentration) were screened for their ability to displace GFP-FAK from focal adhesions (FA) using an automated microscope (ImageXpress Micro, Molecular Devices, Ismaning, Germany) equipped with a Nikon 20x/0.75 NA CFI Plan Apo objective. […]

FAK/Paxillin = target: T2, FAK/Paxillin (Mus musculus, UniProt P34152+Q8VI36); assay: FAK/Paxillin displacement by structurally related compounds (FootLocker series, confocal microscopy); type: cell-based
T2 construct: expressed in transfected cells; host or cells: mouse fibroblasts stably expressing GFP-FAK
Experimental: To determine whether compounds structurally related to Mb31 and Mb36 are likewise suitable to interfere with FAK localization at focal adhesions, mouse fibroblasts stably expressing GFP-FAK were treated for 30 min with 1, 10 or 20 µM of the following compounds: trans-3-hydroxy-β-nitrostyrene (THBN), trans-4-Chloro-β-nitrostyrene (T4CN), trans-β-nitrostyrene (TBN), 4-chlorocinnamic acid (4CA), and trans-3-(4-bromothiophen-2-yl)acrylic acid (T34BA) (Figures 16 and 17). The cells were analyzed by confocal microscopy for GFP-FAK localization. DMSO treatment served as a vehicle control. […] Additional substituents at the aromatic structures, such as halogen atoms or hydroxy groups may contribute to the reactivity of the compound, but are not essential. Based on these findings, the inventors have extended their structure activity-relationship studies and synthesized additional related compounds, which, similar to Mb31, displace FAK and paxillin at concentrations below 10µM (++), displace FAK and paxillin at concentrations above 10 µM (+), or lack FAK and paxillin displacing activity (-). All these substances were then also nicknamed in the FLocker terminology, resulting in FLocker1 - FLocker24 (Table 2). Table 2: Overview of FootLocker nomenclature, their chemical notation/structure and the activity towards FAK/Paxillin displacement

T2 sequence (P34152 whole entry): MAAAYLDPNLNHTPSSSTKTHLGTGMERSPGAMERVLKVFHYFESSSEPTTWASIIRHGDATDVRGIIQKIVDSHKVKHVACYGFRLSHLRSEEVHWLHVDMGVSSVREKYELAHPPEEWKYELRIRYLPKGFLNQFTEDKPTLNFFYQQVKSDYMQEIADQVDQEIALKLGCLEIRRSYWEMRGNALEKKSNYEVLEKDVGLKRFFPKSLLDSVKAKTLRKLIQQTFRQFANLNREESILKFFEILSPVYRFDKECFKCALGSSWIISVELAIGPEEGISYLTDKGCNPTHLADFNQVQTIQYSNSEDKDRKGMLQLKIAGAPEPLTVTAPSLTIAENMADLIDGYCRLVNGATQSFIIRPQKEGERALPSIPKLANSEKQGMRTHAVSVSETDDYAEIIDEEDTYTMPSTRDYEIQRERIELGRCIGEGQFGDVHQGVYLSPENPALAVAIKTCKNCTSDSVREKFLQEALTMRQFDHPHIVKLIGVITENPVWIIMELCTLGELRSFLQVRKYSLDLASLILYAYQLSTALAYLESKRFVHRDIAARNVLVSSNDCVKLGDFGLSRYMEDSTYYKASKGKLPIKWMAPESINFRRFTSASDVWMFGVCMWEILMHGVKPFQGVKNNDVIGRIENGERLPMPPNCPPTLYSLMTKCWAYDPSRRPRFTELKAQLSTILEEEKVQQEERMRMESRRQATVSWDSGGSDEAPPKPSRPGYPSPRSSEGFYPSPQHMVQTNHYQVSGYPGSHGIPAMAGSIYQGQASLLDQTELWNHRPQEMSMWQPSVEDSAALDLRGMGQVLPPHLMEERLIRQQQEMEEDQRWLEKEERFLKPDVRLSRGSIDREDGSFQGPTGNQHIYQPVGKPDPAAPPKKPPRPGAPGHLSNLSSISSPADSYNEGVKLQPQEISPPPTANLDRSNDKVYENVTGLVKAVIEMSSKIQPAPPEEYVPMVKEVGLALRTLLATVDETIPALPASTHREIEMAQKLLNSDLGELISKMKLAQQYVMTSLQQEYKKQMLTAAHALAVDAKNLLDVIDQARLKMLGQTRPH
T2 sequence (Q8VI36 whole entry): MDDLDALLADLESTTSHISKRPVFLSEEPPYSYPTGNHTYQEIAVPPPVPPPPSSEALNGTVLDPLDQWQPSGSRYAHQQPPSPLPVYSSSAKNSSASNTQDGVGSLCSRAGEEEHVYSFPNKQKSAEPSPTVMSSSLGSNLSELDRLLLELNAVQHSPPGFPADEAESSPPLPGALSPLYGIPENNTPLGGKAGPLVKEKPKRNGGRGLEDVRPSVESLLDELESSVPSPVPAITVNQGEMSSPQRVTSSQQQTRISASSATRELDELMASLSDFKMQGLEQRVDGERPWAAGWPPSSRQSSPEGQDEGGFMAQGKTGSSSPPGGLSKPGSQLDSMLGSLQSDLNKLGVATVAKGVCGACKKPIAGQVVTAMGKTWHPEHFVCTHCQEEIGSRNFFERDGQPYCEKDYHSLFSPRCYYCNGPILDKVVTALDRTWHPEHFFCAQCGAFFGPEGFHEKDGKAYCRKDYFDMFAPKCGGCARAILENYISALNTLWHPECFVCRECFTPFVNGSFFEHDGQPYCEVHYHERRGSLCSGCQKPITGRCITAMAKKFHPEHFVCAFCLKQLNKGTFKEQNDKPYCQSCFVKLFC
T1 sequence (P34152 whole entry): as the sequence (P34152 whole entry) above

Compound | pIC50 (FAK) | time to FAK displacement, vinculin localization not disturbed (FAK) | time to FAK displacement from focal adhesions (FAK; GFP-FAK MEFs) [min] | concentration sufficient to induce FAK displacement (FAK; GFP-FAK MEFs) [µM] | concentration sufficient for efficient FAK displacement (FAK; second approach, narrower concentration range (1-5 µM)) | compounds showing the most prominent effect on protein-protein interactions at focal adhesion site (FAK/Paxillin) | disruption of protein-protein interactions at focal adhesion site (FAK/Paxillin) | effect on FAK localization (FAK; GFP-FAK MEFs, 2 µM)
O=[N+]([O-])C=Cc1cc(Br)cs1 [FootLocker 1, 4-bromo-2-(2-nitrovinyl)thiophene] | ~5.70 | less than 1 h | ≤ 5 | 2 | about 4 µM | most prominent effect | efficiently disrupt protein-protein interactions at focal adhesion site | –
Nc1ccc(SC(C[N+](=O)[O-])c2ccc(Cl)cc2)cc1 (centres unmarked) [FootLocker 2, 4-{[1-(4-chlorophenyl)-2-nitroethyl]thio}aniline] | ~5.39 | less than 1 h | 20 | 5 | – | most prominent effect | efficiently disrupt protein-protein interactions at focal adhesion site | no effect was observed
